Where a name gives a salt, the structure may show the parent alone.
Experiments:
[1] = test system: Human immunodeficiency virus 1; test: Antiviral activity against HIV1 3B infected in human MT4 cells assessed as inhibition of virus-induced […] after 5 days by MTT assay; type: functional, organism-based; settings: Human immunodeficiency virus 1, 3B, MT4, 120 h
[2] = test system: Human immunodeficiency virus 2; test: Antiviral activity against HIV2 ROD infected in human MT4 cells assessed as inhibition of virus-induced […] after 5 days by MTT assay; type: functional, organism-based; settings: Human immunodeficiency virus 2, ISOLATE ROD, MT4, 120 h
[3] = test system: Human immunodeficiency virus 1; test: Antiviral activity against HIV1 RES056 expressing reverse transcriptase K103N + Y181C mutant infected in human MT4 cells assessed as inhibition of virus-induced […] after 5 days by MTT assay; type: functional, organism-based; settings: Human immunodeficiency virus 1, RES056, MT4, 120 h
[4] = Cytotoxicity against mock-infected human MT4 cells after 5 days by MTT assay; type: cell-based
[5] = target: Human immunodeficiency virus type 1 reverse transcriptase (Human immunodeficiency virus 1, UniProt Q72547); test: Inhibition of HIV1 reverse transcriptase assessed as reduction in biotin-dUTP incorporation using poly(rA)-oligo(dT) as template/primer and digoxigenin-/biotin-labeled dUTP nucleotides incubated for 1 hr
in vitro = settings: human, MT4 cells, mock-infected (CC50) and HIV1 3B infected (EC50)
Description: Selectivity index, ratio of CC50 for mock-infected human MT4 cells to EC50 for HIV1 3B infected in human MT4 cells

Row | SMILES | EC50 [1] | EC50 [2] | EC50 [3] | CC50 at 120 h [4] | IC50 [5] | selectivity ratio (in vitro)
1 | Cc1cc(C#N)cc(C)c1Oc1cc(Nc2ccc(C#N)cc2)ncc1C(=O)NCCN(C)C | > 8.8 µM | > 7.5 µM | > 23.2 µM | 23.2 µM | 25.8 µM | ≤ 3
2 | CCCNC(=O)c1cnc(Nc2ccc(C#N)cc2)cc1Oc1c(C)cc(C#N)cc1C | 0.54 µM | > 170 µM | > 170 µM | 170 µM | 4.14 µM | 321
3 | COCCNC(=O)c1cnc(Nc2ccc(C#N)cc2)cc1Oc1c(C)cc(C#N)cc1C | 1.74 µM | > 61 µM | > 61 µM | 61 µM | 11.3 µM | 35
4 | Cc1cc(C#N)cc(C)c1Oc1cc(Nc2ccc(C#N)cc2)ncc1C(=O)NCC1CC1 | 0.85 µM | > 146 µM | > 146 µM | > 146 µM | 4.25 µM | ≥ 175
5 | C#CCNC(=O)c1cnc(Nc2ccc(C#N)cc2)cc1Oc1c(C)cc(C#N)cc1C | 0.24 µM | > 167 µM | > 167 µM | 167 µM | 1.29 µM | 703
6 | COC(CNC(=O)c1cnc(Nc2ccc(C#N)cc2)cc1Oc1c(C)cc(C#N)cc1C)OC | 4.54 µM | > 90.6 µM | > 90.6 µM | 90.6 µM | 11.4 µM | 20
7 | Cc1cc(C#N)cc(C)c1Oc1cc(Nc2ccc(C#N)cc2)ncc1C(=O)NC1CC1 | 0.31 µM | > 231 µM | > 231 µM | 231 µM | 3.37 µM | 784
8 | Cc1cc(C#N)cc(C)c1Oc1cc(Nc2ccc(C#N)cc2)ncc1C(=O)NCC1CCCO1 (stereo unspecified) | 3.1 µM | > 142 µM | > 142 µM | 143 µM | 10.9 µM | 46
9 | C=CCNC(=O)c1cnc(Nc2ccc(C#N)cc2)cc1Oc1c(C)cc(C#N)cc1C | 0.24 µM | > 207 µM | > 207 µM | 207 µM | 2.85 µM | 625
10 | Cc1cc(C#N)cc(C)c1Oc1cc(Nc2ccc(C#N)cc2)ncc1C(=O)NCCC#N | 0.69 µM | > 65.8 µM | > 65.8 µM | 65.8 µM | 3.94 µM | 97
11 | Cc1cc(C#N)cc(C)c1Oc1cc(Nc2ccc(C#N)cc2)ncc1C(N)=O | 0.05 µM | > 326 µM | > 326 µM | > 326 µM | 0.08 µM | > 6200
12 | Cc1cc(C)c(Oc2cc(Nc3ccc(C#N)cc3)ncc2C(=O)NCCN(C)C)c(C)c1 | 0.63 µM | > 16.7 µM | > 16.7 µM | 4.67 µM | 3.45 µM | 7
13 | CCCNC(=O)c1cnc(Nc2ccc(C#N)cc2)cc1Oc1c(C)cc(C)cc1C | 0.055 µM | > 11.1 µM | > 11.2 µM | 18.9 µM | 0.32 µM | 335
14 | COCCNC(=O)c1cnc(Nc2ccc(C#N)cc2)cc1Oc1c(C)cc(C)cc1C | 0.067 µM | > 24 µM | 7.8 µM | 24 µM | 0.52 µM | 359
15 | Cc1cc(C)c(Oc2cc(Nc3ccc(C#N)cc3)ncc2C(=O)NCC2CC2)c(C)c1 | 0.11 µM | > 30.6 µM | > 30.6 µM | 30.6 µM | 0.68 µM | 264
16 | C#CCNC(=O)c1cnc(Nc2ccc(C#N)cc2)cc1Oc1c(C)cc(C)cc1C | 0.029 µM | > 73 µM | 6.1 µM | 73 µM | 0.07 µM | 2470
17 | COC(CNC(=O)c1cnc(Nc2ccc(C#N)cc2)cc1Oc1c(C)cc(C)cc1C)OC | 0.28 µM | > 23.2 µM | > 23.2 µM | 23.2 µM | 1.89 µM | 83
18 | Cc1cc(C)c(Oc2cc(Nc3ccc(C#N)cc3)ncc2C(=O)NC2CC2)c(C)c1 | 0.24 µM | > 25.7 µM | > 25.8 µM | 25.8 µM | 0.23 µM | 103
19 | Cc1cc(C)c(Oc2cc(Nc3ccc(C#N)cc3)ncc2C(=O)NCC2CCCO2)c(C)c1 (stereo unspecified) | 0.18 µM | > 274 µM | > 274 µM | > 274 µM | 1.2 µM | > 1490
20 | C=CCNC(=O)c1cnc(Nc2ccc(C#N)cc2)cc1Oc1c(C)cc(C)cc1C | 0.058 µM | > 21.5 µM | 10.1 µM | 21.3 µM | 0.17 µM | 364
21 | Cc1cc(C)c(Oc2cc(Nc3ccc(C#N)cc3)ncc2C(=O)NCCC#N)c(C)c1 | 0.033 µM | > 9.9 µM | > 9.89 µM | 9.89 µM | 0.19 µM | 310
22 | Cc1cc(C)c(Oc2cc(Nc3ccc(C#N)cc3)ncc2C(N)=O)c(C)c1 | 0.027 µM | > 336 µM | > 336 µM | > 336 µM | 0.02 µM | > 12500
23 | CC(C)Nc1cccnc1N1CCN(C(=O)c2cc3cc(NS(C)(=O)=O)ccc3[nH]2)CC1 [DELAVIRDINE MESYLATE] | 0.66 µM |  | > 43.8 µM | > 43.8 µM |  | > 67
24 | O=c1[nH]cnc2c1ncn2[C@H]1CC[C@@H](CO)O1 [DIDANOSINE] | 23.2 µM | 44.9 µM |  | > 212 µM |  | > 9
25 | O=C1Nc2ccc(Cl)cc2[C@@](C#CC2CC2)(C(F)(F)F)O1 [EFAVIRENZ] | 0.0063 µM |  |  | > 6.34 µM |  | 
26 | Cc1cc(C#N)cc(C)c1Oc1nc(Nc2ccc(C#N)cc2)nc(N)c1Br [ETRAVIRINE] | 0.0041 µM |  | 0.025 µM | > 4.59 µM |  | > 1130
27 | Nc1ccn([C@@H]2CS[C@H](CO)O2)c(=O)n1 [LAMIVUDINE] | 2.22 µM | 8.81 µM |  | > 87.2 µM |  | > 39
28 | Cc1ccnc2c1NC(=O)c1cccnc1N2C1CC1 [NEVIRAPINE] | 0.31 µM |  | > 7.58 µM | > 15 µM |  | 
29 | Cc1cn([C@H]2C[C@H](N=[N+]=[N-])[C@@H](CO)O2)c(=O)[nH]c1=O [ZIDOVUDINE] |  | 0.0067 µM | 0.01 µM | > 93.5 µM |  | 
